Laboratory results taken from patent publication US8901313B2, “6,5-heterocyclic propargylic alcohol compounds and uses therefor” (Genentech, Inc., priority 2011, dated 2014).

What follows are compounds tested against T1, nuclear factor-kappa B (NF-kB)-inducing kinase (NIK) (Homo sapiens, UniProt Q99558) (assay: NIK Enzyme Inhibition Assay (Transcreener ADP assay)). Conditions: purified NIK 0.2-1 nM, 10 uM ATP, fluorescence polarization, Morrison's quadratic equation; read-out: inhibitory value (Ki) for NIK.
T1 construct: made in house; host or cells: baculovirus-infected insect cells
T1 sequence (Q99558 whole entry): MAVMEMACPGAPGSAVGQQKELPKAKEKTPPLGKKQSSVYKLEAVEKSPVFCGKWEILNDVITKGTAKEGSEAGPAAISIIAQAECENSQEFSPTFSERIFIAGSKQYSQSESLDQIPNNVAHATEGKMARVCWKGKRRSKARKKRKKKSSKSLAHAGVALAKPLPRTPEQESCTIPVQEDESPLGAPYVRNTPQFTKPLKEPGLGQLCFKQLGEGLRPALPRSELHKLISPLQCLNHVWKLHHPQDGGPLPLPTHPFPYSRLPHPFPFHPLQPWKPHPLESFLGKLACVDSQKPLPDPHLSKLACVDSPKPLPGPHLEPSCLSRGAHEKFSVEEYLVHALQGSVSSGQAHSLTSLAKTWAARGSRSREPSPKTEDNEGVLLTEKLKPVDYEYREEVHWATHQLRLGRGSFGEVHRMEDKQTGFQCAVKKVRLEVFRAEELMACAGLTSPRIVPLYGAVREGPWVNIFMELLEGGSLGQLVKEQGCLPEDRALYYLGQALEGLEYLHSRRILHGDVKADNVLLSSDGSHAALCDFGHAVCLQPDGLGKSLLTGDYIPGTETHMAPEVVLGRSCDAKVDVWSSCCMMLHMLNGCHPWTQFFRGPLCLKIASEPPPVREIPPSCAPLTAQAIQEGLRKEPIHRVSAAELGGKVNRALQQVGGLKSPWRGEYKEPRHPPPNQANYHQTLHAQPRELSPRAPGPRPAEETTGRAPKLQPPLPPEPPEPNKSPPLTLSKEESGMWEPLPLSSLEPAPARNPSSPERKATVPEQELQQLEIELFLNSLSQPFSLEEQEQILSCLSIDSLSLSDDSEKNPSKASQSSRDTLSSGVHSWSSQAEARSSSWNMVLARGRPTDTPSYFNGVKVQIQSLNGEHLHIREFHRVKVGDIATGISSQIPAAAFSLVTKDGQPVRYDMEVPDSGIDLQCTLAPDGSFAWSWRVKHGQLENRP
Assay type: biochemical
Compound Cc1cc([C@](C)(O)C#Cc2ccc3nc(C)n(-c4ncnc(N)n4)c3c2)no1 [Example T1.1-5, (2R)-4-[3-(4-amino-1,3,5-triazin-2-yl)-2-methyl-benzimidazol-5-yl]-2-(5-methylisoxazol-3-yl)but-3-yn-2-ol] has a Ki of 0.32 nM. Cc1cc(C(C)(O)C#Cc2ccc3c(C(C)(O)C4CC4)nn(-c4ccnc(N)n4)c3c2)no1 (centres unmarked) [Example T1.1-6, 4-[1-(2-aminopyrimidin-4-yl)-3-(1-cyclopropyl-1-hydroxy-ethyl)indazol-6-yl]-2-(5-methylisoxazol-3-yl)but-3-yn-2-ol] gave a Ki of 0.32 nM. For Cc1nc([C@](C)(O)C#Cc2ccc3c(C(C)(C)O)nn(-c4ccnc(N)n4)c3c2)no1 [Example T1.1-7, (2R)-4-[1-(2-aminopyrimidin-4-yl)-3-(1-hydroxy-1-methyl-ethyl)indazol-6-yl]-2-(5-methyl-1,2,4-oxadiazol-3-yl) but-3-yn-2-ol], the Ki was 0.4 nM. For Cc1nc([C@](C)(O)C#Cc2ccc3c(CF)nn(-c4ccnc(N)n4)c3c2)no1 [Example T1.1-8, (2R)-4-[1-(2-aminopyrimidin-4-yl)-3-(fluoromethyl)indazol-6-yl]-2-(5-methyl-1,2,4-oxadiazol-3-yl)but-3-yn-2-ol], the Ki was 0.5 nM. Compound Cc1cc([C@](C)(O)C#Cc2ccc3c(C(C)(C)O)nn(-c4ccnc(N)n4)c3c2)no1 [Example T1.1-9, (2R)-4-[1-(2-aminopyrimidin-4-yl)-3-(1-hydroxy-1-methyl-ethyl)indazol-6-yl]-2-(5-methyl-isoxazol-3-yl)but-3-yn-2-ol] has a Ki of 0.5 nM. With Cc1cc([C@](C)(O)C#Cc2ccc3c(c2)n(-c2ccnc(N)n2)c(=O)n3C)no1 [Example T1.1-10, 3-(2-aminopyrimidin-4-yl)-5-[(3R)-3-hydroxy-3-(5-methylisoxazol-3-yl)but-1-ynyl]-1-methyl-benzimidazol-2-one] the Ki was 0.5 nM. For Cc1nn(-c2ccnc(N)n2)c2cc(C#CC(C)(O)c3c[nH]cn3)ccc12 (centres unmarked) [Example T1.1-12, 4-[1-(2-aminopyrimidin-4-yl)-3-methyl-indazol-6-yl]-2-(1H-imidazol-4-yl)but-3-yn-2-ol], the Ki was 0.6 nM. Work on Cc1cc(C(C)(O)C#Cc2ccc3nc(OCC(O)CO)n(-c4ccnc(N)n4)c3c2)no1 (centres unmarked) [Example T1.1-13, 3-[1-(2-aminopyrimidin-4-yl)-6-[3-hydroxy-3-(5-methylisoxazol-3-yl)but-1-ynyl]benzimidazol-2-yl]oxypropane-1,2-diol] yielded a Ki of 0.6 nM. Cc1cc([C@](C)(O)C#Cc2ccc3c(C(=O)N4CCOCC4)nn(-c4ccnc(N)n4)c3c2)no1 [Example T1.1-14, [1-(2-aminopyrimidin-4-yl)-6-[(3R)-3-hydroxy-3-(5-methylisoxazol-3-yl)but-1-ynyl]indazol-3-yl]-morpholino-methanone] gave a Ki of 0.8 nM. Work on CNC(=O)c1nn(-c2ccnc(N)n2)c2cc(C#C[C@@](C)(O)c3cc(C)on3)ccc12 [Example T1.1-15, 1-(2-aminopyrimidin-4-yl)-6-[(3R)-3-hydroxy-3-(5-methylisoxazol-3-yl)but-1-ynyl]-N-methyl-indazole-3-carboxamide] yielded a Ki of 1 nM. Cc1nn(-c2ccnc(N)n2)c2cc(C#CC3(O)CCN(C)C3=O)ccc12 (centres unmarked) [Example T1.1-16, 3-[2-[1-(2-aminopyrimidin-4-yl)-3-methyl-indazol-6-yl]ethynyl]-3-hydroxy-1-methyl-pyrrolidin-2-one] was tested, and the Ki was 1 nM. CCOc1nc2ccc(C#CC(C)(O)c3cc(CO)on3)cc2n1-c1ccnc(N)n1 (centres unmarked) [Example T1.1-17, 4-[3-(2-aminopyrimidin-4-yl)-2-ethoxy-benzimidazol-5-yl]-2-[5-(hydroxymethyl)isoxdazol-3-yl]but-3-yn-2-ol] gave a Ki of 1 nM. Cc1nn(-c2ccnc(N)n2)c2cc(C#CC(C)(O)c3cc(CF)on3)ccc12 (centres unmarked) [Example T1.1-19, 4-[1-(2-aminopyrimidin-4-yl)-3-methyl-indazol-6-yl]-2-[5-(fluoromethyl)isoxazol-3-yl]but-3-yn-2-ol] showed a Ki of 1 nM. Cc1cc([C@](C)(O)C#Cc2ccc3c(C(N)=O)nn(-c4ccnc(N)n4)c3c2)no1 [Example T1.1-20, 1-(2-aminopyrimidin-4-yl)-6-[(3R)-3-hydroxy-3-(5-methyl-isoxazol-3-yl)but-1-ynyl] indazole-3-carboxamide] gave a Ki of 1 nM. CC(O)(C#Cc1ccc2[nH]c(=O)n(-c3ccnc(N)n3)c2c1)c1cc(CO)on1 (centres unmarked) [Example T1.1-21, 3-(2-aminopyrimidin-4-yl)-5-[3-hydroxy-3-[5-(hydroxymethyl)isoxazol-3-yl]but-1-ynyl]-1H-benzimidazol-2-one] showed a Ki of 1 nM. In the case of Cn1c(=O)n(-c2ccnc(N)n2)c2cc(C#CC3(O)CCn4ccnc43)ccc21 (centres unmarked) [Example T1.1-22, 3-(2-aminopyrimidin-4-yl)-5-[2-(7-hydroxy-5,6-dihydropyrrolo[1,2-a]imidazol-7-yl)ethynyl]-1-methyl-benzimidazol-2-one], the Ki is reported as 1 nM. Work on Cc1nc([C@](C)(O)C#Cc2ccc3c(C(=O)N4CC(O)C4)nn(-c4nc(N)ncc4Cl)c3c2)no1 [Example T1.1-23, [1-(2-amino-5-chloro-pyrimidin-4-yl)-6-[(3R)-3-hydroxy-3-(5-methyl-1,2,4-oxadiazol-3-yl)but-1-ynyl]indazol-3-yl]-(3-hydroxy-azetidin-1-yl)methanone] yielded a Ki of 1 nM. Cc1nc([C@](C)(O)C#Cc2ccc3c(C(=O)N4CCC(F)CC4)nn(-c4ccnc(N)n4)c3c2)no1 [Example T1.1-24, [1-(2-aminopyrimidin-4-yl)-6-[(3R)-3-hydroxy-3-(5-methyl-1,2,4-oxadiazol-3-yl)but-1-ynyl]indazol-3-yl]-(4-fluoro-1-piperidyl)methanone] was tested, and the Ki was 1 nM. With Cc1cc([C@](C)(O)C#Cc2ccc3nc(OC4COC4)n(-c4ccnc(N)n4)c3c2)no1 [Example T1.1-25, (2R)-4-[3-(2-aminopyrimidin-4-yl)-2-(oxetan-3-yloxy)benzimidazol-5-yl]-2-(5-methylisoxazol-3-yl) but-3-yn-2-ol] the Ki was 1 nM. Work on CN(C)C(=O)c1nn(-c2ccnc(N)n2)c2cc(C#CC(C)(O)c3cc(CO)on3)ccc12 (centres unmarked) [Example T1.1-26, 1-(2-aminopyrimidin-4-yl)-6-[3-hydroxy-3-[5-(hydroxymethyl)isoxazol-3-yl]but-1-ynyl]-N,N-dimethyl-indazole-3-carboxamide] yielded a Ki of 1 nM. Compound Cc1cc(C(C)(O)C#Cc2ccc3nc(OCCO)n(-c4ccnc(N)n4)c3c2)no1 (centres unmarked) [Example T1.1-27, 4-[3-(2-aminopyrimidin-4-yl)-2-(2-hydroxyethoxy)benzimidazol-5-yl]-2-(5-methylisoxazol-3-yl)but-3-yn-2-ol] has a Ki of 2 nM. CCOc1nc2ccc(C#CC3(O)CCn4ccnc43)cc2n1-c1ccnc(N)n1 (centres unmarked) [Example T1.1-28, 7-[2-[3-(2-aminopyrimidin-4-yl)-2-ethoxy-benzimidazol-5-yl]ethynyl]-5,6-dihydropyrrolo[1,2-a]imidazol-7-ol] showed a Ki of 2 nM. Cc1cc(C(C)(O)C#Cc2ccc3nc(OCC(F)(F)F)n(-c4ccnc(N)n4)c3c2)no1 (centres unmarked) [Example T1.1-29, 4-[3-(2-aminopyrimidin-4-yl)-2-(2,2,2-trifluoroethoxy)benzimidazol-5-yl]-2-(5-methylisoxazol-3-yl) but-3-yn-2-ol] was tested, and the Ki was 2 nM. With Cc1nc(C(C)(O)C#Cc2ccc3c(C(=O)N(C)C)nn(-c4ccnc(N)n4)c3c2)no1 (centres unmarked) [Example T1.1-30, 1-(2-aminopyrimidin-4-yl)-6-[3-hydroxy-3-(5-methyl-1,2,4-oxadiazol-3-yl)but-1-ynyl]-N,N-dimethyl-indazole-3-carboxamide] the Ki was 2 nM. In the case of Cc1nc([C@](C)(O)C#Cc2ccc3c(c2)n(-c2ccnc(N)n2)c(=O)n3C)no1 [Example T1.1-31, 3-(2-aminopyrimidin-4-yl)-5-[(3R)-3-hydroxy-3-(5-methyl-1,2,4-oxadiazol-3-yl)but-1-ynyl]-1-methyl-benzimidazol-2-one], the Ki is reported as 2 nM. Cc1cc(C(C)(O)C#Cc2ccc3c(c2)n(-c2ccnc(N)n2)c(=O)n3CC2CC2)no1 (centres unmarked) [Example T1.1-32, 3-(2-aminopyrimidin-4-yl)-1-(cyclopropylmethyl)-5-[3-hydroxy-3-(5-methylisoxazol-3-yl)but-1-ynyl] benzimidazol-2-one] was tested, and the Ki was 2 nM. Cc1nn(-c2ccnc(N)n2)c2cc(C#CC(C)(O)c3cc(CO)on3)ccc12 (centres unmarked) [Example T1.1-33, 4-[1-(2-aminopyrimidin-4-yl)-3-methyl-indazol-6-yl]-2-[5-(hydroxy-methyl)isoxazol-3-yl]but-3-yn-2-ol] was tested, and the Ki was 2 nM. In the case of Cc1nc([C@](C)(O)C#Cc2ccc3c(C(=O)N4CC(O)C4)nn(-c4ccnc(N)n4)c3c2)no1 [Example T1.1-34, [1-(2-aminopyrimidin-4-yl)-6-[(3R)-3-hydroxy-3-(5-methyl-1,2,4-oxadiazol-3-yl)but-1-ynyl]indazol-3-yl]-(3-hydroxyazetidin-1-yl)methanone], the Ki is reported as 2 nM. With Cc1nc([C@](C)(O)C#Cc2ccc3c(C(C)(C)F)nn(-c4ccnc(N)n4)c3c2)no1 [Example T1.1-35, (2R)-4-[1-(2-aminopyrimidin-4-yl)-3-(1-fluoro-1-methyl-ethyl)indazol-6-yl]-2-(5-methyl-1,2,4-oxadiazol-3-yl) but-3-yn-2-ol] the Ki was 2 nM. Cc1nc(C(C)(O)C#Cc2ccc3c(CC(C)(O)C(F)F)nn(-c4ccnc(N)n4)c3c2)no1 (centres unmarked) [Example T1.1-36, 3-[1-(2-aminopyrimidin-4-yl)-6-[3-hydroxy-3-(5-methyl-1,2,4-oxadiazol-3-yl)but-1-ynyl]indazol-3-yl]-1,1-difluoro-2-methyl-propan-2-ol] showed a Ki of 2 nM. Cc1cc([C@](C)(O)C#Cc2ccc3c(CN4CCOCC4)nn(-c4ccnc(N)n4)c3c2)no1 [Example T1.1-38, (2R)-4-[1-(2-aminopyrimidin-4-yl)-3-(morpholinomethyl)indazol-6-yl]-2-(5-methylisoxazol-3-yl)but-3-yn-2-ol] gave a Ki of 2 nM. CN(C)C(=O)c1nn(-c2ccnc(N)n2)c2cc(C#CC3(O)CCn4ccnc43)ccc12 (centres unmarked) [Example T1.1-39, 1-(2-aminopyrimidin-4-yl)-6-[2-(7-hydroxy-5,6-dihydropyrrolo[1,2-a]imidazol-7-yl)ethynyl]-N,N-dimethyl-indazole-3-carboxamide] gave a Ki of 2 nM.
